Source: patent publication US10144944B2, “Methods of cell culture” (Momenta Pharmaceuticals, Inc., priority 2013, dated 2018)
Like-named read-outs stand apart in the source and are kept apart here.

Legend:
[1] = system: CHO cells genetically engineered to express the antibody; conditions: for Product titer: day-7 batch culture; for viable cell density (VCD): day 4
Procedure: (§1) The effect of putrescine on antibody glycoforms of a model antibody produced by CHO cells was analyzed. CHO cells genetically engineered to express the antibody were grown initially in base media (Power CHO2, Catalog #BE15-771, Lonza Inc., Allendale, N.J.). Cells were then inoculated (at 0.55×10^6 cells/mL) into a chemically defined medium containing 0.17 mg/L, 0.35 mg/L, or […] putrescine 2HCl and cultured as a batch culture in TPP tubespins for 7 days.
(§2) Cell viability was assessed on day 4 using a hemocytometer using cells stained with trypan blue. Titer was determined from the day-7 cultures by protein A affinity HPLC. Relative quantitation of each glycoform was performed on purified protein using Chip ToF. Chip ToF uses mass spectrometry to measure the extracted ion chromatogram (XIC) area for each species after chip-based enzymatic removal and purification of N-glycans, relative to the total XIC for detected species (see, e.g., mAb-Glyco Chip Kit, Agilent Technologies).

[2] = system: model antibody produced by CHO cells
Procedure: as §1, §2

[3] = with increasing levels of putrescine, FIG. 4
[4] = with increasing putrescine, FIG. 3

NCCCCN [putrescine]
Product titer ([1]; 0.17 mg/L putrescine in medium): 40 mg/L | viable cell density (VCD) ([1]; 0.17 mg/L putrescine): 1.5×10^6 cells/mL | Product titer ([1]; 0.35 mg/L putrescine in medium): 58 mg/L | viable cell density (VCD) ([1]; 0.35 mg/L putrescine): 1.8×10^6 cells/mL | Product titer ([1]; 0.52 mg/L putrescine in medium): 73 mg/L | viable cell density (VCD) ([1]; 0.52 mg/L putrescine): 2.2×10^6 cells/mL | relative change in G0F, G1F, and G2F ([2]; 0.52 mg/L putrescine compared to 0.17 mg/L putrescine, FIG. 3): about 10% | putrescine level above which effect on fucosylated glycans saturates ([2]; non-linear relationship, FIG. 2): above 0.35 mg/mL | fraction of fucosylated glycans ([2]; with increasing levels of putrescine (0.17-0.52 mg/L), FIG. 2): increased | high mannose glycans [2, 3]: reduced | level of sialylated glycans [2, 3]: increased | level of galactosylation ([2]; with increasing putrescine): increase | levels of G0F [2, 4]: reduced | levels of G1F [2, 4]: increased | levels of G2F [2, 4]: increased
